Source: patent US11484561B2, “Morus extracts rich in N-acids of imino sugars and or pipecolic acids” (Phynova Limited, priority 2011, dated 2022)
Where a name gives a salt, the structure may show the parent alone.

Columns and labels:
Format in all cases: biochemical
glycogen phosphorylase = experiment: Glycogen phosphorylase assay; conditions: for glycogen phosphorylase inhibition: words, no concentration; for GP Inhibition (%): at 400 μM
[1] = system: N-acetyl-β-D-gluc (Jack bean); experiment: Glycosidase assay, N-acetyl-β-D-gluc (Jack bean)
Method: (§1) The assays used p-nitrophenyl-substrates and commercial enzymes purchased from Sigma-Aldrich. Enzymes were assayed at 27° C. in 0.1M citric acid/0.2M disodium hydrogen phosphate buffers at the optimum pH for the enzyme. The incubation mixture consisted of 10 μl enzyme solution, 10 μl of 10 mg/ml aqueous solution of extract and 50 μl of the appropriate 5 mM p-nitrophenyl substrate made up in buffer at the optimum pH for the enzyme. The reactions were stopped by addition of 70 μl 0.4M glycine (pH 10.4) during the exponential phase of the reaction, which had been determined at the beginning using uninhibited assays in which water replaced mulberry fractions. Final absorbances were read at 405 nm using a Versamax microplate reader (Molecular Devices). Assays were carried out in triplicate, and the values given are means of the three replicates per assay. Results are expressed as % inhibition.
(§2) Substrates are 10 mM p-nitrophenyl-glycopyranosides. Enzymes are purchased from Sigma and run at the pH optima

[2] = biological target: T1, β-D-galactosidase (bovine) (Bos taurus, UniProt Q58D55); experiment: Glycosidase assay, β-D-galactosidase (bovine)
T1 construct: purchased Sigma-Aldrich
T1 sequence (Q58D55 28-653): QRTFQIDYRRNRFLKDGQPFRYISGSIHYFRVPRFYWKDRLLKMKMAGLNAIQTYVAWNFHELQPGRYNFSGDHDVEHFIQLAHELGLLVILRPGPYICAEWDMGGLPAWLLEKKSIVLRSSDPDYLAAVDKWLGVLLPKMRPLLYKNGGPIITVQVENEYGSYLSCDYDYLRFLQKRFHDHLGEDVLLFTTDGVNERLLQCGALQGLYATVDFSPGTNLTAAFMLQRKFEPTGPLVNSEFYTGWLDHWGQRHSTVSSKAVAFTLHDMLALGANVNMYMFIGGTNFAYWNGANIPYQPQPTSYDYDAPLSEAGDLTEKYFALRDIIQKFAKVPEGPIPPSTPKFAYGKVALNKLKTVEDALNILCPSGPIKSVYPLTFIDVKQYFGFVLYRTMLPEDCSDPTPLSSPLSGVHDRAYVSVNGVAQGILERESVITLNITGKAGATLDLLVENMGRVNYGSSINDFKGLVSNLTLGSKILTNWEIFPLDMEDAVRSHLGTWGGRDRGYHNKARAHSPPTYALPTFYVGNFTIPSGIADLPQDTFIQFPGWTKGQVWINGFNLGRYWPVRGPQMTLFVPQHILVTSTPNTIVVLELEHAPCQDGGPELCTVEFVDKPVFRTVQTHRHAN
Method: as §1, §2

α-D-glucosidase (Yeast) = biological target: T2, α-D-glucosidase (Yeast) (Saccharomyces cerevisiae, UniProt P53341); experiment: Glycosidase assay, α-D-glucosidase (Yeast)
T2 construct: purchased Sigma-Aldrich
Method: as §1, §2

β-D-glucosidase (almond) = experiment: Glycosidase assay, β-D-glucosidase (almond)
Method: as §1, §2

[3] = system: α-D-glucosidase (Bacillus); experiment: Glycosidase assay, α-D-glucosidase (Bacillus)
Method: as §1, §2

[4] = system: N-acetyl-β-D-gluc (Bovine kidney); experiment: Glycosidase assay, N-acetyl-β-D-gluc (Bovine kidney)
Method: as §1, §2

α-D-glucosidase (rice) = biological target: T3, α-D-glucosidase (rice) (Oryza sativa subsp. japonica, UniProt Q653V7); experiment: Glycosidase assay, α-D-glucosidase (rice)
T3 construct: purchased Sigma-Aldrich
Method: as §1, §2

[5] = biological target: T4, β-glucuronidase (bovine liver) (Bos taurus, UniProt A3KMY8); experiment: Glycosidase assay, β-glucuronidase (bovine liver); conditions: Table 6; % inhibition; concentration not given (method: 10 mg/ml solution)
T4 construct: purchased Sigma-Aldrich; host or cells: bovine liver
T4 sequence (A3KMY8 1-652): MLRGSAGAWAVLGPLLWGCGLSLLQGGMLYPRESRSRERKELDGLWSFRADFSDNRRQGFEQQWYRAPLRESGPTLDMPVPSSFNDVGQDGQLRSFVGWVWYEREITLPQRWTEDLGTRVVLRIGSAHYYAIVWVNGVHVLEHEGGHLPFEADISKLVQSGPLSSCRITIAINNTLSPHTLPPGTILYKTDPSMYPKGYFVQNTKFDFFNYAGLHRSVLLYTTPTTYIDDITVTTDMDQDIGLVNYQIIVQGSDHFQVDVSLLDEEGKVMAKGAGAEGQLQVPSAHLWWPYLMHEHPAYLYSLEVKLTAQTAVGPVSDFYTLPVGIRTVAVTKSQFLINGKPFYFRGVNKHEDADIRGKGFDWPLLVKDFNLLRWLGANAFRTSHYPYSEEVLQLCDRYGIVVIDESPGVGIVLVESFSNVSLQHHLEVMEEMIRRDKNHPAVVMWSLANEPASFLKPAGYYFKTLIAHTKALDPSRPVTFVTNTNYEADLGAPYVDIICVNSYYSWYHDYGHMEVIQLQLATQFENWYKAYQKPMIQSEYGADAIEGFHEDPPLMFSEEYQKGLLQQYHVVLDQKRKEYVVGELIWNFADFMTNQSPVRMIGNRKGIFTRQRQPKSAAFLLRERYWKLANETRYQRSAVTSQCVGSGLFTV
Method: as §1, §2

[6] = biological target: T5, α-D-mannosidase (Jack bean) (Canavalia ensiformis, UniProt C0HJB3); experiment: Glycosidase assay, α-D-mannosidase (Jack bean); conditions: % inhibition
T5 construct: purchased Sigma-Aldrich
T5 sequence (C0HJB3 1-562 limits assumed): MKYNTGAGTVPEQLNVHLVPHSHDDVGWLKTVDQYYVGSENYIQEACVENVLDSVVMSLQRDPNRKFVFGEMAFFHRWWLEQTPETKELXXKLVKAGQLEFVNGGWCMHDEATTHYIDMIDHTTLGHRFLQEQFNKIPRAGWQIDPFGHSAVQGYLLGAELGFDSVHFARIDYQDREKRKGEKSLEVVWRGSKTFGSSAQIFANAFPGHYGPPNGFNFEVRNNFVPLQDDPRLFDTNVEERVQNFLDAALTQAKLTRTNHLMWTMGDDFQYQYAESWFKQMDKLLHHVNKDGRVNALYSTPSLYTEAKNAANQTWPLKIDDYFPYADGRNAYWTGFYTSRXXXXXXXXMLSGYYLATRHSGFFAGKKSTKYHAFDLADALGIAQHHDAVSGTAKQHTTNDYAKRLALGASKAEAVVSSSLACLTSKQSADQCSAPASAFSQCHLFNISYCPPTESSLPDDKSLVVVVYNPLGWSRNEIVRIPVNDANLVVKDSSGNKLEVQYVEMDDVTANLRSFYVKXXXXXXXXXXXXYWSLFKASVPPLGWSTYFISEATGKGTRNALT
Method: as §1, with “The reactions were stopped by addition of 70 μl 0.4M glycine (pH 10.4) during the exponential phase of the reaction, which had been determined at the beginning using uninhibited assays in which water replaced mulberry fractions.” left out
as §2

[7] = biological target: T6, amyloglucosidase (A. niger) (Aspergillus niger, UniProt P69328); experiment: Glycosidase assay, amyloglucosidase (A. niger); conditions: % inhibition; for amyloglucosidase A. niger: Table 6, concentration not given (method: 10 mg/ml solution)
T6 construct: purchased Sigma-Aldrich
Method: as §1, §2

[8] = system: β-D-mannosidase Cellulomonas fimi; experiment: Glycosidase assay, β-D-mannosidase (Cellulomonas fimi); conditions: % inhibition; for β-D-mannosidase Cellulomonas fimi: Table 6, concentration not given (method: 10 mg/ml solution)
Method: as §1

[9] = biological target: T7, α-D-galactosidase (green coffee bean) (Coffea arabica, UniProt Q42656); experiment: Glycosidase assay, α-D-galactosidase (green coffee bean); conditions: % inhibition; for α-D-galactosidase coffee bean: Table 6, concentration not given (method: 10 mg/ml solution)
T7 construct: purchased Sigma-Aldrich
Method: as §1, §2

[10] = system: naringinase (P. decumbens); experiment: Glycosidase assay, naringinase (P. decumbens); conditions: % inhibition
Method: as §1, §2

β-D-glucosidase (yeast) = experiment: Glycosidase assay, β-D-glucosidase (yeast); conditions: Table 16; % inhibition; concentration not given
Method: as §1

α-L-fucosidase (bovine) = biological target: T8, α-L-fucosidase (bovine) (Bos taurus, UniProt Q2KIM0); experiment: Glycosidase assay, α-L-fucosidase (bovine); conditions: Table 16; % inhibition; concentration not given
T8 construct: purchased Sigma-Aldrich
T8 sequence (Q2KIM0 23-468): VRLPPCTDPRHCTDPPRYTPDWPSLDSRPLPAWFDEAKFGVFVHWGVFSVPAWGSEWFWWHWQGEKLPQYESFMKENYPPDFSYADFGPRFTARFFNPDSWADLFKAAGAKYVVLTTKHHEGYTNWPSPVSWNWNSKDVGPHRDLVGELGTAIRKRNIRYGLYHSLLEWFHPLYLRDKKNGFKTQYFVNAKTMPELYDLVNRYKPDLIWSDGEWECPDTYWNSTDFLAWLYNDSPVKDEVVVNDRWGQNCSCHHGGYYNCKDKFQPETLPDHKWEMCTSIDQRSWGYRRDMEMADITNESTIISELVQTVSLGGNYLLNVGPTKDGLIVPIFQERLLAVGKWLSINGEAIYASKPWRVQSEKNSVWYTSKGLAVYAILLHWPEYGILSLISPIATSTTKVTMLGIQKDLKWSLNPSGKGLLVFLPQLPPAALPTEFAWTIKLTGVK
Method: as §1

[11] = Table 9, sugar fractions, 10 mM p-nitrophenyl substrate, concentration given only for sucrose (10 mg/ml)
[12] = Table 6, % inhibition, concentration not given (method: 10 mg/ml solution)
[13] = Table 6, concentration not given (method: 10 mg/ml solution)
[14] = Table 16, % inhibition, concentration not given
[15] = Table 16, concentration not given

T2 sequence (P53341 whole entry): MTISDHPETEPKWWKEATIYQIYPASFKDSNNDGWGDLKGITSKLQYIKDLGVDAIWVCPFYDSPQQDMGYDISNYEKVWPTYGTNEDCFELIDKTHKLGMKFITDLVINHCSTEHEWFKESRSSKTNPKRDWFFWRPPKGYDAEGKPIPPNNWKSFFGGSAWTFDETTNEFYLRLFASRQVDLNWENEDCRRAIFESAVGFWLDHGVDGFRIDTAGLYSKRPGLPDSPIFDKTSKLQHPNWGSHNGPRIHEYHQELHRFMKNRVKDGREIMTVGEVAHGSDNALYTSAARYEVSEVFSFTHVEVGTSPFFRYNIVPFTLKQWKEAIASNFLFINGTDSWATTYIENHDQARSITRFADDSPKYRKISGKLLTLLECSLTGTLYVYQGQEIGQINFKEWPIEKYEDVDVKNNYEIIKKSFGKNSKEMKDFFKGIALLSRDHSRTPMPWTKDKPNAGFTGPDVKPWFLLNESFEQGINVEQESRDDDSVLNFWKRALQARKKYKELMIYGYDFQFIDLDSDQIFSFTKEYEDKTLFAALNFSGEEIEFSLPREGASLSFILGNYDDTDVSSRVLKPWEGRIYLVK
T3 sequence (Q653V7 34-885): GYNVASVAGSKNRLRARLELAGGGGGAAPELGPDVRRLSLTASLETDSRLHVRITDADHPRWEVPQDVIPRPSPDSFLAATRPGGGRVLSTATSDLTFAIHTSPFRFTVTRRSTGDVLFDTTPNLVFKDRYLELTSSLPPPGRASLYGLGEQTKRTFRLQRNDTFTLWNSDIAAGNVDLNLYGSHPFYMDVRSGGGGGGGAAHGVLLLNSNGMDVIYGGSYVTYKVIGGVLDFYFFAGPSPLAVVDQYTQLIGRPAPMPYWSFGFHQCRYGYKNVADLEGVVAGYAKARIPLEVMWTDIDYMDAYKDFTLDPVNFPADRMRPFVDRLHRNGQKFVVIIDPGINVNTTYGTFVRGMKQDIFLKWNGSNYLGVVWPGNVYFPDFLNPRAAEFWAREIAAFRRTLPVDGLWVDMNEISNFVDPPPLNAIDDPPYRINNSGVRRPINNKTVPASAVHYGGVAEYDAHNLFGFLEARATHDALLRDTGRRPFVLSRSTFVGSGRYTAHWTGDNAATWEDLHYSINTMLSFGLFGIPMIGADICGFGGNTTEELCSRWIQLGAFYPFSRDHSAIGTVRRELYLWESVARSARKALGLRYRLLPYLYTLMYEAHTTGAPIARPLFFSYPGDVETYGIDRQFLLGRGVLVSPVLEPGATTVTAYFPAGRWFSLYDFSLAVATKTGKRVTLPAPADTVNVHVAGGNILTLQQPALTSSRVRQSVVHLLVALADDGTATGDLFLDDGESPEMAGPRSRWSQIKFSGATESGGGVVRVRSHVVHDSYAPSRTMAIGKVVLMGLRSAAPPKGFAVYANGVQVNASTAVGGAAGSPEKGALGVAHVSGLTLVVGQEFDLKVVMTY
T6 sequence (P69328 25-640): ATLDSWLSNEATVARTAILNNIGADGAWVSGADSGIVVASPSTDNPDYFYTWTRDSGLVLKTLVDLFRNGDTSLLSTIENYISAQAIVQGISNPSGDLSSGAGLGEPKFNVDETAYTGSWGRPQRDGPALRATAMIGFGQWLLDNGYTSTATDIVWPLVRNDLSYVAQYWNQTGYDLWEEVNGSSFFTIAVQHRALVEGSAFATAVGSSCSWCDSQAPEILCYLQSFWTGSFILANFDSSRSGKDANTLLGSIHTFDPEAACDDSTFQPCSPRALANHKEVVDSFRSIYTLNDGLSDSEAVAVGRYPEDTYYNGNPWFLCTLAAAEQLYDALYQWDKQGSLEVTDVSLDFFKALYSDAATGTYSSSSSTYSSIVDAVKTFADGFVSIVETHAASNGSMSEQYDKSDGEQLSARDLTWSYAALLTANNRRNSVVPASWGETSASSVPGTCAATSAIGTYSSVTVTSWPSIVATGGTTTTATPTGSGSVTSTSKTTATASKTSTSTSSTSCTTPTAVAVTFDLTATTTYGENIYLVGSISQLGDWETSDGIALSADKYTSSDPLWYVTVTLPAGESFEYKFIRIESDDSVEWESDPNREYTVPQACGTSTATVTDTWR
T7 sequence (Q42656 16-378): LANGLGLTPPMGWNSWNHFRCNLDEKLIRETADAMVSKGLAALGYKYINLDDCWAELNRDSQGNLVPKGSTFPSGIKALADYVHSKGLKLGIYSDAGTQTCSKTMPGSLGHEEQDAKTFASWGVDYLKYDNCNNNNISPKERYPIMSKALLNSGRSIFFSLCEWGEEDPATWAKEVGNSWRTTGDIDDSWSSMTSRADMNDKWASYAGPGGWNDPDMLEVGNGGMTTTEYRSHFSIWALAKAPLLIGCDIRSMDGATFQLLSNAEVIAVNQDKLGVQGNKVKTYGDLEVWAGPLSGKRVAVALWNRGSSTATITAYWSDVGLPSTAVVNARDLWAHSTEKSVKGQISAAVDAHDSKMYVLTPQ

OC[C@H]1NCC[C@@H](O)[C@@H]1O [fagomine, Fagomine]
glycogen phosphorylase inhibition (glycogen phosphorylase): do not inhibit

OC[C@H]1O[C@@](CO)(O[C@H]2O[C@H](CO)[C@@H](O)[C@H](O)[C@H]2O)[C@@H](O)[C@@H]1O [sucrose]
N-acetyl-β-D-gluc Jack bean [1, 11]: 0 % inhibition
β-D-galactosidase (Bovine) [2, 11]: 0 % inhibition
α-D-glucosidase (Yeast) (α-D-glucosidase (Yeast); [11]): 0 % inhibition
β-D-glucosidase almond (β-D-glucosidase (almond); [11]): 0 % inhibition
α-D-glucosidase (Bacillus) [3, 11]: −7 % inhibition
glycogen phosphorylase inhibition (glycogen phosphorylase): do not inhibit
N-acetyl-β-D-gluc (Bovine kidney) ([4]; Table 9, sucrose 10 mg/ml): 0 % inhibition
α-D-glucosidase (Rice) (α-D-glucosidase (rice); [11]): 0 % inhibition

C[n+]1cccc(C(=O)[O-])c1 [trigonellin HCl, trigonelline]
N-acetyl-β-D-gluc Jack bean [1, 12]: 0%
β-D-galactosidase (Bovine) [2, 12]: 0%
α-D-glucosidase (Yeast) (α-D-glucosidase (Yeast); [12]): 0%
β-D-glucosidase almond (β-D-glucosidase (almond); [12]): 0%
β-glucuronidase bovine liver [5]: 0%
α-D-mannosidase (Jack bean) [6, 13]: 0%
α-D-glucosidase (Bacillus) [3, 12]: −12%
GP Inhibition (%) (glycogen phosphorylase): 6.9%
glycogen phosphorylase inhibition (glycogen phosphorylase): not greatly inhibitory
amyloglucosidase A. niger [7]: 0%
N-acetyl-β-D-gluc (Bovine kidney) [4, 12]: −8%
β-D-mannosidase Cellulomonas fimi [8]: 0%
α-D-galactosidase coffee bean [9]: 0%
Naringinase (P. decumbens) [10, 13]: 0%
α-D-glucosidase (Rice) (α-D-glucosidase (rice); [12]): 0%

O=C(O)[C@@H]1CC[C@@H](O)CN1 [compound 900439]
N-acetyl-β-D-gluc Jack bean [1, 12]: 8%
β-D-galactosidase (Bovine) [2, 12]: 0%
α-D-glucosidase (Yeast) (α-D-glucosidase (Yeast); [12]): 0%
β-D-glucosidase almond (β-D-glucosidase (almond); [12]): 0%
β-glucuronidase bovine liver [5]: 0%
α-D-mannosidase (Jack bean) [6, 13]: 0%
α-D-glucosidase (Bacillus) [3, 12]: 0%
amyloglucosidase A. niger [7]: 0%
N-acetyl-β-D-gluc (Bovine kidney) [4, 12]: 9%
β-D-mannosidase Cellulomonas fimi [8]: 0%
α-D-galactosidase coffee bean [9]: −6%
Naringinase (P. decumbens) [10, 13]: −6%
α-D-glucosidase (Rice) (α-D-glucosidase (rice); [12]): 0%

O=C(O)[C@@H]1CC[C@@H](O)CN1 [drawing 7]
GP Inhibition (%) (glycogen phosphorylase): 0%

C[n+]1cc(C(=O)[O-])ccc1O [6OH trig, 6-hydroxytrigonelline]
N-acetyl-β-D-gluc Jack bean [1, 12]: −11%
β-D-galactosidase (Bovine) [2, 12]: 8%
α-D-glucosidase (Yeast) (α-D-glucosidase (Yeast); [12]): 0%
β-D-glucosidase almond (β-D-glucosidase (almond); [12]): 0%
β-glucuronidase bovine liver [5]: 0%
α-D-mannosidase (Jack bean) [6, 13]: 0%
α-D-glucosidase (Bacillus) [3, 12]: −36%
GP Inhibition (%) (glycogen phosphorylase): 11.9%
amyloglucosidase A. niger [7]: 0%
N-acetyl-β-D-gluc (Bovine kidney) [4, 12]: 12%
β-D-mannosidase Cellulomonas fimi [8]: 0%
α-D-galactosidase coffee bean [9]: −16%
Naringinase (P. decumbens) [10, 13]: 0%
α-D-glucosidase (Rice) (α-D-glucosidase (rice); [12]): 0%

OC[C@H]1NC[C@@H](O)[C@@H]1O [DAB, 1,4-dideoxy-1,4-imino-D-arabinitol]
β-D-glucosidase (yeast) (β-D-glucosidase (yeast)): 100%
β-D-galactosidase (Bovine) [2, 14]: 100%
α-D-glucosidase (Yeast) (α-D-glucosidase (Yeast); [14]): 100%
α-D-mannosidase (Jack bean) [6, 15]: 3%
α-D-glucosidase (Bacillus) [3, 14]: 93%
Amyloglucosidase [7, 15]: 47%
N-acetyl-β-D-gluc (Bovine kidney) [4, 14]: −8%
β-D-mannosidase (C. fimi) [8, 15]: 95%
α-D-galactosidase (Green coffee beans) [9, 15]: 7%
α-L-fucosidase (Bovine) (α-L-fucosidase (bovine)): 5%
Naringinase (P. decumbens) [10, 15]: 3%
α-D-glucosidase (Rice) (α-D-glucosidase (rice); [14]): 100%
